The source of these data is US20050118116A1, “Dental bleaching product” (UNIVERSITAT DE LES ILLES BALEARS, LABORATORIOS KIN, S.A., priority 1999, published 2005).

The nature of assay [1]: speed with which a tetracycline solution is rendered colourless (spectrophotometer, 37° C.). Format: biochemical. As to conditions: no peroxidase; high carbamide peroxide concentrations; FIG. 2. From the text:
The mouth wash consists of a 2.4% carbamide peroxide solution in 0.1 M phosphate buffer, pH 6.5 and on the other hand, a peroxidase solution (120 units of pyrogallol/ml) in 0.1 M phosphate buffer, pH 6.5 which is fed into the container in which the de-staining reaction is to take place, immediately after the mouth wash.
The substance to be rendered colourless is tetracycline, which is solublised in water at a concentration of 0.015M. The maximum tetracycline absorption wavelength has been selected so as to monitor the de-staining speed. The de-staining speed is determined using a spectrophotometer which allows the absorption to be monitored continually, the reaction tray being thermostated at 37° C. The de-staining reaction speeds have been calculated from the relations between absorbency variation and the reaction time, and they have been expressed in nKat.
The necessary quantities of tetracycline solution, the mouth wash and enzyme (in this order) are placed in the reaction tray to obtain the parameter combinations according to which it is intended to evaluate the enzyme bleaching capacity.

Assay [2] in a line: tooth brightness factor before/after treatment (non-limiting example in the description). The settings on record: 1.5% carbamide peroxide, pH 6.5 phosphates; peroxidase 20 units pyrogallol/ml where present; 64% before treatment.

As to `NC(N)=O.OO` [carbamide peroxide], the “carbamide peroxide concentration from which de-staining speed saturates” value in assay [1] was “approximately 0.70 M”. Besides, the “brightness factor of a tooth after treatment” value in assay [2] is reported as 64%.
